Experimental findings from patent US12281122B1, “PI3K inhibitors” (Cogent Biosciences, Inc., priority 2023, dated 2025) are described below.

For data set [1], the target named is PI3Kα H1047R (Homo sapiens, UniProt P42336, H1047R). The data set can be described thus: PI3Kα H1047R enzyme assay (Transcreener ADP2 TR-FRET Red Assay). The class given is biochemical. Particulars: purified recombinant full-length protein; 2 hours pre-incubation with compound. The method, boiled down:
(§1)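 IC50 taken at 50 POC from a four-parameter logistic fit of TR-FRET (665/615 nm) ADP signal. Reactions used full-length recombinant enzyme, compound pre-incubation for 2 h, then 60 min with ATP and PI(4,5)P2 diC8 substrate at room temperature, pH 7.5 HEPES buffer with 25 mM MgCl2; compounds tested from 50,000 to 0.85 nM.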

Data set [2] relates to T47D (PI3Kα-H1047R) cell line. The data set can be described thus: HTRF phospho-AKT(S473) cell assay in T47D cells. The data set is classed as cell-based, human. The note with it: Homo sapiens; T47D (PI3Kα-H1047R) cells, HTRF phospho-AKT(S473), 2 hours compound incubation. The method, boiled down:
(§2)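 Cells plated overnight (T47D in RPMI/10% FBS/0.2 units/mL insulin; SKBR3 in McCoy's 5A/10% FBS), then given 12-point 1:3 compound series (top 5 μM T47D, 10 μM SKBR3; ≤0.5% DMSO) for 2 h at 37° C. SKBR3 stimulated with 70 ng/ml PDGF-BB for final 15 min. Lysate pAKT(S473) by HTRF; IC50 calculated.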
(In general: Time-resolved FRET reads energy transfer from a long-lived donor to a nearby acceptor.)

The test system of data set [3] is SKBR3 (PI3Kα-Wild Type) cell line. The experiment in a line: HTRF phospho-AKT(S473) cell assay in SKBR3 cells. The class given is cell-based, human. Particulars: Homo sapiens, SK-BR-3; SKBR3 (PI3Kα-Wild Type) cells, HTRF phospho-AKT(S473), 2 hours compound incubation, PDGF-BB stimulated. The method, boiled down: as §2
For data set [4], the target named is PI3Kα (Homo sapiens, UniProt P42336). The experiment in a line: PI3Kα enzyme assay (Transcreener ADP2 TR-FRET Red Assay). The note with it: purified recombinant full-length protein; 2 hours pre-incubation with compound; read-out: PI3Kα WT IC50. The class given is biochemical. The method, boiled down: as §1
PI3Kα, sequence (P42336 whole entry): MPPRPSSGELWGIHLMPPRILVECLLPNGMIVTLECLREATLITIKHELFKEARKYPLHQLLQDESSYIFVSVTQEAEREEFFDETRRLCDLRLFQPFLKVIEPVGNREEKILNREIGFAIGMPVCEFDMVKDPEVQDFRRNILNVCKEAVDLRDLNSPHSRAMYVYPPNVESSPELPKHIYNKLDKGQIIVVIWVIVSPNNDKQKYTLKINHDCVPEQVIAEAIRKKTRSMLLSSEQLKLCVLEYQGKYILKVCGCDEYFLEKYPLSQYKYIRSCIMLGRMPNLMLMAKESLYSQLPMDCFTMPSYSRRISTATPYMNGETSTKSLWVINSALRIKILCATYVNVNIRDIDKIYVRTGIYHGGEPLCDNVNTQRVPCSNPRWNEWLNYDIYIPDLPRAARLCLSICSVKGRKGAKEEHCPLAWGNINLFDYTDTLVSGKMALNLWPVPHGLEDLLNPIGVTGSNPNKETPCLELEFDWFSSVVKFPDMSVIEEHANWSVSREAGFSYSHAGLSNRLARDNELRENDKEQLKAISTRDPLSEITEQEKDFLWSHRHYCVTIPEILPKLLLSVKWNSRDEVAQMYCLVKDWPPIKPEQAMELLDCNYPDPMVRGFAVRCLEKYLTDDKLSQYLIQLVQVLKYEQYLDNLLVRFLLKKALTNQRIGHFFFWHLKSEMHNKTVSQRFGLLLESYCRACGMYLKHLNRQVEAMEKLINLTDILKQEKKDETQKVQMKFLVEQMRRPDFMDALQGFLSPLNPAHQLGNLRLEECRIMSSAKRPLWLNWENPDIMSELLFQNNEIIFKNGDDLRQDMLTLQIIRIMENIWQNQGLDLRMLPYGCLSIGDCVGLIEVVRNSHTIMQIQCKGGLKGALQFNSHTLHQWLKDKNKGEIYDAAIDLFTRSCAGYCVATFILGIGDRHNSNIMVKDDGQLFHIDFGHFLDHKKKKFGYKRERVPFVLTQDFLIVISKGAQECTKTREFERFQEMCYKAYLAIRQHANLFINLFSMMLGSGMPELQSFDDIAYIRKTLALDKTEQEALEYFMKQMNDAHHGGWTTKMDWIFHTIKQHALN
PI3Kα, sequence (P27986 2-724 partner): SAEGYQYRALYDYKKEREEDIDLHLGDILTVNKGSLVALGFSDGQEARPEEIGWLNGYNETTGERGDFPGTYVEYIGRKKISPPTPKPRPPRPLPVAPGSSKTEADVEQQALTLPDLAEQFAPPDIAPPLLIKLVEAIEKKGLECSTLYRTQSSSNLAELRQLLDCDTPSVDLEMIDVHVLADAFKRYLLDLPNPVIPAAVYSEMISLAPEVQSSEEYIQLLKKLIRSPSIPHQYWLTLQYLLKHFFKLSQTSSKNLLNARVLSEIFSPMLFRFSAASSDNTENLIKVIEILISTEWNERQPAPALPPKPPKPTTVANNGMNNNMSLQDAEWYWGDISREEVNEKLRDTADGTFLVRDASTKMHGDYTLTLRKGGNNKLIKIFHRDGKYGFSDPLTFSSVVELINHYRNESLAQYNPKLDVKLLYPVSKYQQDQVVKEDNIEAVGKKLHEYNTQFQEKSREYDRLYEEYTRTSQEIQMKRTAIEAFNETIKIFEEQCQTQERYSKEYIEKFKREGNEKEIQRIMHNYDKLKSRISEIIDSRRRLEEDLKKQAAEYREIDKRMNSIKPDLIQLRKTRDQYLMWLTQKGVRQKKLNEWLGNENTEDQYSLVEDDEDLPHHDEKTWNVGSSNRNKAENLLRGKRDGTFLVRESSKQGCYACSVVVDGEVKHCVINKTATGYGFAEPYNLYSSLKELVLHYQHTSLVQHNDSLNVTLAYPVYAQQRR
Data set [5] in a line: Mouse PK, IV and PO. The note with it: in vivo; for clearance: read-out: PK-Mouse: IV Cl; for bioavailability: read-out: PK-Mouse: PO F (%).
Setting [6] is: IV dose 3 mg/kg, read-out: PK-Mouse: IV-AUCinf.
[7] abbreviates: PO dose 30 mg/kg, 20% Captisol (aq), fed.
Where [8] appears, read: PO dose 30 mg/kg, 20% Captisol (aq), fed, read-out: PK-Mouse: PO AUCinf.

The structures appear in SMILES notation. Where two headings read alike, the source gives them in different places.

Broadly, the IC50 is the concentration at which inhibition is half-maximal. A word on the Cmax: it is the highest concentration seen after dosing.

PI3Kα H1047R, sequence (P42336 whole entry H1047R): as the sequence (P42336 whole entry) above, with H1047R counted along it
PI3Kα H1047R, sequence (P27986 2-724 partner): as the sequence (P27986 2-724 partner) above

Turning to `Cc1cc([C@@H](C)Nc2ccc(Cl)nc2C(=O)NS(C)(=O)=O)c2nc(N3Cc4ccc(F)cc4C3)n(C)c(=O)c2c1` [Compound 1, (R)-6-chloro-3-((1-(2-(5-fluoroisoindolin-2-yl)-3,6-dimethyl-4-oxo-3,4-dihydroquinazolin-8-yl)ethyl)amino)-N-(methylsulfonyl)picolinamide], the IC50 in data set [1] was 500 to 1000 nM; in data set [2], less than 250 nM; in data set [3], 1000 to 5000 nM; in data set [4], not below 1000 nM. Also, the clearance in data set [5] (IV dose 3 mg/kg) is 0.74 mL/min/kg. Also, the values for the AUC(0-inf) in data set [5] (setting [6]) and in data set [5] (setting [8]) were 67500 ng·h/mL and 548000 ng·h/mL, respectively. This compound also gave a Cmax in data set [5] (setting [7]) of 35500 ng/mL. The bioavailability in data set [5] (setting [7]) came out at 81%.
For the compound `Cc1cc([C@@H](C)Nc2ccc(Cl)nc2C(=O)O)c2nc(N3Cc4ccc(F)cc4C3)n(C)c(=O)c2c1` [Compound 1 acid derivative, (R)-6-chloro-3-((1-(2-(5-fluoroisoindolin-2-yl)-3,6-dimethyl-4-oxo-3,4-dihydroquinazolin-8-yl)ethyl)amino)picolinic acid, reference compound], in data set [5] (IV dose 3 mg/kg), the clearance came out at 24.3 mL/min/kg. Moreover, in data set [5] (setting [6]), the AUC(0-inf) came out at 2070 ng·h/mL. Moreover, in data set [5] (setting [7]), the maximum concentration (Cmax) is 2490 ng/mL and the bioavailability worked out at 43%. Moreover, the AUC(0-inf) in data set [5] (setting [8]) was 8850 ng·h/mL.
On to `Cc1cc([C@@H](C)Nc2ccc(Cl)nc2C(=O)NS(C)(=O)=O)c2nc(N3Cc4cnn(C(C)C)c4C3)n(C)c(=O)c2c1` [Compound 49, (R)-6-chloro-3-((1-(2-(1-isopropyl-4,6-dihydropyrrolo[3,4-c]pyrazol-5(1H)-yl)-3,6-dimethyl-4-oxo-3,4-dihydroquinazolin-8-yl)ethyl)amino)-N-(methylsulfonyl) picolinamide], for which the half-inhibitory concentration (IC50) in data set [1] is 100 to 250 nM; in data set [2], less than 250 nM; in data set [3], 1000 to 5000 nM; in data set [4], not below 1000 nM.
